Data from patent publication US7629332B2, “Nitrophenyl mustard and nitrophenylaziridine alcohols and their corresponding phosphates and their use as targeted cytotoxic agents” (Auckland Uniservices Limited, priority 2003, dated 2009).

Assays:
WiDr (NTR+ve) = assay: Cell proliferation (sulphorhodamine B) IC50, NTR-transfected WiDr human colon cells; format: cell-based; settings: for WiDr WT:NTR IC50 Ratio: 4 h, sensitivity ratio for NTR expression; for IC50: WiDr, 4 h drug exposure, growth 5 further days
A549 (P450R+ve) = assay: Cell proliferation (sulphorhodamine B) IC50, P450R-transfected A549 human lung cells, anoxia vs 20% O2; format: cell-based; settings: for A549 (P450R+ve) 20% O2/anoxia IC50 Ratio: 4 h, sensitivity ratio for hypoxia; for IC50: A549, 4 h drug exposure under 0% oxygen
[1] = test system: SiHa human tumour xenografts; assay: SiHa xenograft excision / clonogenic assay, with or without 15 Gy radiation; format: in vivo; settings: for Activity against hypoxic cells: 20% of respective MTDs, after radiation
in vivo = settings: CD-1 nude, mouse, ip

| Compound | melting point | WiDr WT:NTR IC50 Ratio (WiDr (NTR+ve)) | IC50 (WiDr (NTR+ve)) | A549 (P450R+ve) 20% O2/anoxia IC50 Ratio (A549 (P450R+ve)) | IC50 (A549 (P450R+ve)) | Log kill, cmpd only, Mean ± sem ([1]; 75% of MTD, single i.p. dose, no radiation, relative to vehicle controls, excision 18 h) | MTD (in vivo) | Activity against hypoxic cells [1] | Log kill, cmpd only, Mean ± sem ([1]; in vivo, ip) |
| --- | --- | --- | --- | --- | --- | --- | --- | --- | --- |
| O=C(NCCCOP(=O)(O)O)c1cc(N(CCCl)CCCl)c([N+](=O)[O-])cc1[N+](=O)[O-] | 195 to 200 °C | – | – | – | – | – | – | – | – |
| CC(Br)CN(CC(C)Br)c1c(C(=O)NCCOP(=O)(O)O)cc([N+](=O)[O-])cc1[N+](=O)[O-] (stereo not shown) | 157 to 161 °C | – | – | – | – | – | – | – | – |
| CS(=O)(=O)c1cc([N+](=O)[O-])c(C(=O)NCCO)cc1N(CCBr)CCBr [IIa-7s, 5-[Bis(2-Bromoethyl)Amino]-N-(2-hydroxyethyl)-4-(Methylsulfonyl)-2-Nitrobenzamide] | 126 to 127 °C | 35 | 9.3 µM | 109 | 2.1 µM | – | – | – | – |
| O=C(NCCCCO)c1cc(N(CCBr)CCBr)c([N+](=O)[O-])cc1[N+](=O)[O-] [IIa-9, N-(4-Hydroxybutyl)-5-[Bis(2-Bromoethyl)Amino]-2,4-Dinitrobenzamide] | 123 to 124 °C | 58 | 6.4 µM | 9.4 | 22 µM | – | – | – | – |
| O=C(NCCCCCCO)c1cc([N+](=O)[O-])cc([N+](=O)[O-])c1N1CC1 [IIb-1, 2-(Aziridin-1-yl)-N-(6-Hydroxyhexyl)-3,5-Dinitrobenzamide] | 189 to 192 °C | 2 | 61 µM | <1.3 | 384 µM | – | – | – | – |
| O=C(NCCO)c1cc([N+](=O)[O-])cc([N+](=O)[O-])c1N(CCCl)CCCl [IIb-2, 2-[Bis(2-Chloroethyl)Amino]-N-(2-Hydroxyethyl)-3,5-Dinitrobenzamide] | 109 to 111 °C | 47 | 11.8 µM | 20 | 18 µM | – | – | – | – |
| O=C(NCCCO)c1cc([N+](=O)[O-])cc([N+](=O)[O-])c1N(CCCl)CCCl [IIb-3, 2-[Bis(2-Chloroethyl)Amino]-N-(3-Hydroxypropyl)-3,5-Dinitrobenzamide] | 89 to 91 °C | 59 | 13.6 µM | 9 | 30 µM | – | – | – | – |
| CC(Br)CN(CC(C)Br)c1c(C(=O)NCCO)cc([N+](=O)[O-])cc1[N+](=O)[O-] (stereo not shown) [IIb-7a, 2-[Bis(2-Bromopropyl)Amino]-N-(2-Hydroxyethyl)-3,5-Dinitrobenzamide] | 127 to 130 °C | 27 | 0.5 µM | 5.3 | 1 µM | – | – | – | – |
| O=C(NCCCO)c1cc([N+](=O)[O-])cc([N+](=O)[O-])c1N(CCBr)CCBr [IIb-8, 2-[Bis(2-Bromoethyl)Amino]-N-(3-Hydroxypropyl)-3,5-Dinitrobenzamide] | 89 to 94 °C | 13 | 0.4 µM | 24 | 1.1 µM | – | – | – | – |
| O=C(NCCO)c1cc([N+](=O)[O-])cc([N+](=O)[O-])c1N(CCI)CCI [IIb-14, 2-[Bis(2-Iodoethyl)Amino]-N-(2-Hydroxyethyl)-3,5-Dinitrobenzamide] | 129 to 131 °C | 12 | 0.8 µM | 27 | 1 µM | – | – | – | – |
| O=C(NCCOP(=O)(O)O)c1cc([N+](=O)[O-])cc([N+](=O)[O-])c1N(CCI)CCI [Ib-14P, 2-[[2-[Bis(2-Iodoethyl)Amino]-3,5-Dinitrobenzoyl]Amino]Ethyl Dihydrogen Phosphate] | – | – | – | – | – | 0.92 ± 0.06 | 562 µmol/kg | – | – |
| N[C@@H](Cc1ccc(N(CCCl)CCCl)cc1)C(=O)O [Melphalan, reference compound] | – | – | – | – | – | – | 42.2 µmol/kg | lacked activity | – |
| Nc1n[n+]([O-])c2ccccc2[n+]1[O-] [Tirapazamine, reference compound] | – | – | – | – | – | – | 316 µmol/kg | lacked activity | −0.02 ± 0.01 |
